# In ChEMBL document CHEMBL1201862, “PubChem BioAssay data set” (2004):
#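 Where inhibition never reached the appropriate level, the endpoint shown equals the highest concentration tested. Otherwise, values were interpolated linearly from a five-concentration, 48-hour dose response in 96-well plates. At the GI50, growth is halved.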 Activity calls are given as the source filed them. Cut-off read from the data, not from the text of the source: active = GI50 up to about 1.1 µM and inactive = higher.
# What was measured:
# Test in all cases: NCI tumour cell line growth inhibition, 48 h
# HOP-92 = test system: HOP-92
# OVCAR-8 = test system: OVCAR-8
# OVCAR-3 = test system: OVCAR-3
# NCI-H460 = test system: NCI-H460
# TK-10 = test system: TK-10
# SF-268 = test system: SF-268
# KM12 = test system: KM12
# K562 = test system: K562
# SK-MEL-2 = test system: SK-MEL-2
# COLO 205 = test system: COLO 205
# SR = test system: SR
# A549 = test system: A549
# IGROV-1 = test system: IGROV-1
# SF-539 = test system: SF-539
# SK-MEL-28 = test system: SK-MEL-28
# HOP-62 = test system: HOP-62
# NCI-H226 = test system: NCI-H226
# MOLT-4 = test system: MOLT-4
# SW-620 = test system: SW-620
# UACC-257 = test system: UACC-257
Compound,GI50 (HOP-92),GI50 (OVCAR-8),GI50 (OVCAR-3),GI50 (NCI-H460),GI50 (TK-10),GI50 (SF-268),GI50 (KM12),GI50 (K562),GI50 (SK-MEL-2),GI50 (COLO 205),GI50 (SR),GI50 (A549),GI50 (IGROV-1),GI50 (SF-539),GI50 (SK-MEL-28),GI50 (HOP-62),GI50 (NCI-H226),GI50 (MOLT-4),GI50 (SW-620),GI50 (UACC-257)
O=C1OC2(OC2c2ccc(Cl)cc2)c2ccccc21 (stereo unspecified),> 100 µM (inactive),> 100 µM (inactive),> 100 µM (inactive),> 100 µM (inactive),> 100 µM (inactive),> 100 µM (inactive),71.1 µM (inactive),53.1 µM (inactive),> 100 µM (inactive),> 100 µM (inactive),> 100 µM (inactive),> 100 µM (inactive),> 100 µM (inactive),> 100 µM (inactive),> 100 µM (inactive),20.4 µM (inactive),> 100 µM (inactive),> 100 µM (inactive),> 100 µM (inactive),
O=c1oc2ccccc2n1P(=O)(n1c(=O)oc2ccccc21)n1c(=O)oc2ccccc21,> 100 µM (inactive),,> 100 µM (inactive),> 100 µM (inactive),> 100 µM (inactive),> 100 µM (inactive),> 100 µM (inactive),> 100 µM (inactive),> 100 µM (inactive),> 100 µM (inactive),> 100 µM (inactive),> 100 µM (inactive),> 100 µM (inactive),> 100 µM (inactive),> 100 µM (inactive),> 100 µM (inactive),> 100 µM (inactive),> 100 µM (inactive),> 100 µM (inactive),> 100 µM (inactive)
O=C1C(Cl)N(c2ccccc2)C1c1c[nH]c2ccccc12 (stereo unspecified),> 100 µM (inactive),> 100 µM (inactive),> 100 µM (inactive),> 100 µM (inactive),> 100 µM (inactive),> 100 µM (inactive),> 100 µM (inactive),> 100 µM (inactive),> 100 µM (inactive),> 100 µM (inactive),> 100 µM (inactive),> 100 µM (inactive),> 100 µM (inactive),> 100 µM (inactive),> 100 µM (inactive),> 100 µM (inactive),,> 100 µM (inactive),> 100 µM (inactive),> 100 µM (inactive)
O=C(O)c1cc2sc(C(=O)O)cc2s1,> 100 µM (inactive),,> 100 µM (inactive),> 100 µM (inactive),> 100 µM (inactive),> 100 µM (inactive),> 100 µM (inactive),> 100 µM (inactive),,> 100 µM (inactive),> 100 µM (inactive),> 100 µM (inactive),> 100 µM (inactive),> 100 µM (inactive),,> 100 µM (inactive),> 100 µM (inactive),> 100 µM (inactive),> 100 µM (inactive),> 100 µM (inactive)
NC1(C(=O)O)CCCC1 [CYCLOLEUCINE],> 625 µM (inactive),> 625 µM (inactive),> 62.5 µM (inactive),> 625 µM (inactive),,> 177 µM (inactive),> 625 µM (inactive),> 625 µM (inactive),> 625 µM (inactive),> 625 µM (inactive),,> 625 µM (inactive),> 625 µM (inactive),> 625 µM (inactive),> 625 µM (inactive),> 625 µM (inactive),> 625 µM (inactive),> 625 µM (inactive),> 625 µM (inactive),> 625 µM (inactive)
Nc1n[nH]c2nc3ccccc3nc12 [QUINOXALINE1],> 100 µM (inactive),> 100 µM (inactive),62.4 µM (inactive),84.7 µM (inactive),70.1 µM (inactive),66.4 µM (inactive),,> 100 µM (inactive),> 100 µM (inactive),61.8 µM (inactive),20 µM (inactive),61.9 µM (inactive),18.1 µM (inactive),61.7 µM (inactive),> 100 µM (inactive),61 µM (inactive),91.8 µM (inactive),61.1 µM (inactive),86.7 µM (inactive),> 100 µM (inactive)
O=[N+]([O-])C(=C/c1ccccc1)/C(=C\c1ccccc1)[N+](=O)[O-],21.3 µM (inactive),20 µM (inactive),19.5 µM (inactive),14.8 µM (inactive),16.1 µM (inactive),26.7 µM (inactive),15.4 µM (inactive),7.11 µM (inactive),20.1 µM (inactive),15.2 µM (inactive),,28.6 µM (inactive),16.8 µM (inactive),1.6 µM (inactive),15.9 µM (inactive),19.1 µM (inactive),19.1 µM (inactive),3.2 µM (inactive),13.5 µM (inactive),17 µM (inactive)
COc1nc2ccc(CNc3ccc(C(=O)NC(CCC(=O)O)C(=O)O)cc3)cc2nc1OC (stereo unspecified),,> 100 µM (inactive),> 100 µM (inactive),> 100 µM (inactive),> 100 µM (inactive),> 100 µM (inactive),> 100 µM (inactive),25.3 µM (inactive),> 100 µM (inactive),> 100 µM (inactive),> 100 µM (inactive),> 100 µM (inactive),> 100 µM (inactive),,> 100 µM (inactive),> 100 µM (inactive),> 100 µM (inactive),18.8 µM (inactive),39.6 µM (inactive),> 100 µM (inactive)
C/C(=C1/N=C(c2cc([N+](=O)[O-])ccc2Cl)N(c2ccc(Br)cc2)C1=O)c1cc2ccccc2oc1=O,,81.8 µM (inactive),49.2 µM (inactive),26.3 µM (inactive),,39.6 µM (inactive),21.8 µM (inactive),34.4 µM (inactive),22.6 µM (inactive),3.38 µM (inactive),14.9 µM (inactive),25.9 µM (inactive),26.1 µM (inactive),30.1 µM (inactive),60.8 µM (inactive),> 100 µM (inactive),> 100 µM (inactive),20.2 µM (inactive),34.2 µM (inactive),45.8 µM (inactive)
CC(=O)OCC1OC(n2c(-c3ccc(C)cc3)cc(-c3ccco3)c(C#N)c2=S)C(OC(C)=O)C(OC(C)=O)C1OC(C)=O (stereo unspecified),16.6 µM (inactive),25.8 µM (inactive),> 100 µM (inactive),24.7 µM (inactive),52.1 µM (inactive),56.8 µM (inactive),> 100 µM (inactive),> 100 µM (inactive),41.7 µM (inactive),> 100 µM (inactive),> 100 µM (inactive),69.5 µM (inactive),98.4 µM (inactive),17.4 µM (inactive),> 100 µM (inactive),42.7 µM (inactive),25.2 µM (inactive),> 100 µM (inactive),> 100 µM (inactive),> 100 µM (inactive)
COc1cc2c(cc1OC)-c1cc3ccccc3c(=O)n1CC2,14.1 µM (inactive),29 µM (inactive),22 µM (inactive),28.2 µM (inactive),19.9 µM (inactive),24.9 µM (inactive),13.2 µM (inactive),26.1 µM (inactive),11.7 µM (inactive),37.8 µM (inactive),14.3 µM (inactive),11.4 µM (inactive),19.5 µM (inactive),14.1 µM (inactive),27.7 µM (inactive),5.19 µM (inactive),26.8 µM (inactive),26.1 µM (inactive),29.1 µM (inactive),40.8 µM (inactive)
C=CCP(=O)(CC=C)C(Cl)Cl,> 100 µM (inactive),> 100 µM (inactive),> 100 µM (inactive),> 100 µM (inactive),> 100 µM (inactive),,,> 100 µM (inactive),> 100 µM (inactive),> 100 µM (inactive),> 100 µM (inactive),> 100 µM (inactive),> 100 µM (inactive),,> 100 µM (inactive),> 100 µM (inactive),> 100 µM (inactive),> 100 µM (inactive),> 100 µM (inactive),> 100 µM (inactive)
COc1ccc2c(c1)CC1Cc3ccccc3CCN1C2 (stereo unspecified),27.7 µM (inactive),> 100 µM (inactive),35.1 µM (inactive),38.9 µM (inactive),24.5 µM (inactive),> 100 µM (inactive),21.6 µM (inactive),56.2 µM (inactive),44 µM (inactive),35.5 µM (inactive),65.8 µM (inactive),28.8 µM (inactive),38 µM (inactive),31.1 µM (inactive),> 100 µM (inactive),6.14 µM (inactive),89.1 µM (inactive),80.5 µM (inactive),76 µM (inactive),52.8 µM (inactive)
C=C(C(=O)C(=O)Oc1ccc(Cl)cc1)C(=O)c1ccc(C)cc1,> 100 µM (inactive),55.3 µM (inactive),46.8 µM (inactive),83 µM (inactive),> 100 µM (inactive),46.8 µM (inactive),21.5 µM (inactive),81.5 µM (inactive),> 100 µM (inactive),> 100 µM (inactive),13.1 µM (inactive),78 µM (inactive),> 100 µM (inactive),18.4 µM (inactive),71.1 µM (inactive),> 100 µM (inactive),> 100 µM (inactive),58.3 µM (inactive),19.3 µM (inactive),71.8 µM (inactive)
Cc1c2cnccc2c(C)c2c1c1ccccc1n2CCCCCCNCc1ccccc1,2.03 µM (inactive),0.883 µM (active),1.87 µM (inactive),0.538 µM (active),,1.41 µM (inactive),1.21 µM (inactive),0.541 µM (active),2.22 µM (inactive),1.43 µM (inactive),,1.91 µM (inactive),1.8 µM (inactive),1.87 µM (inactive),2.38 µM (inactive),4.17 µM (inactive),1.55 µM (inactive),0.167 µM (active),0.608 µM (active),1.96 µM (inactive)
